Test results published in the supplement of paper PMC10307832.

Columns and labels:
Assay in all cases: relative viability (nuclei count vs DMSO), 5 days (fraction); higher = more cells survive
Irinotecan + Decitabine = compound: CCc1c2c(nc3ccc(OC(=O)N4CCC(N5CCCCC5)CC4)cc13)-c1cc3c(c(=O)n1C2)COC(=O)[C@]3(O)CC [Irinotecan] + Nc1ncn([C@H]2C[C@H](O)[C@@H](CO)O2)c(=O)n1 [Decitabine] (partner 2 µM)
How it was run: (§1)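 Values are medians from duplicate plates. Each reflects relative viability, defined as the nuclei count of treated wells over that of vehicle wells. Lung cancer cell lines in 1536-well plates were pin-tool dosed one day after seeding with one drug alone or with a fixed anchor-drug dose plus five library-drug doses (not always all listed) in √10 steps, then fixed, stained and imaged at 4× after 5 days.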

MK-8033 + Phenformin = compound: Cn1cc(-c2cnc3ccc4ccc(CS(=O)(=O)NCc5ccccn5)cc4c(=O)c3c2)cn1 [MK-8033] + N=C(N)NC(=N)NCCc1ccccc1 [Phenformin] (partner 250 µM)
How it was run: as §1

MK-8033 + Pictilisib = compound: Cn1cc(-c2cnc3ccc4ccc(CS(=O)(=O)NCc5ccccn5)cc4c(=O)c3c2)cn1 [MK-8033] + CS(=O)(=O)N1CCN(Cc2cc3nc(-c4cccc5[nH]ncc45)nc(N4CCOCC4)c3s2)CC1 [Pictilisib] (partner 1 µM)
How it was run: as §1

RU-SKI 43 + Alpelisib = compound: CC[C@@H](C)CNCC(=O)N1CCC2=C([C@@H]1COC3=CC=CC(=C3)C)C=CS2 [RU-SKI 43] + Cc1nc(NC(=O)N2CCC[C@H]2C(N)=O)sc1-c1ccnc(C(C)(C)C(F)(F)F)c1 [Alpelisib] (partner 2 µM)
How it was run: as §1

Row | Cell Line | relative viability (Irinotecan + Decitabine; first compound 0.6325 µM) | relative viability (Irinotecan + Decitabine; first compound 2 µM) | relative viability (Irinotecan + Decitabine; first compound 6.325 µM) | relative viability (Irinotecan + Decitabine; first compound 20 µM) | relative viability (MK-8033 + Phenformin; first compound 0.02 µM) | relative viability (MK-8033 + Phenformin; first compound 0.06325 µM) | relative viability (MK-8033 + Phenformin; first compound 0.2 µM) | relative viability (MK-8033 + Phenformin; first compound 0.6325 µM) | relative viability (MK-8033 + Phenformin; first compound 2 µM) | relative viability (MK-8033 + Pictilisib; first compound 0.02 µM) | relative viability (MK-8033 + Pictilisib; first compound 0.06325 µM) | relative viability (MK-8033 + Pictilisib; first compound 0.2 µM) | relative viability (MK-8033 + Pictilisib; first compound 0.6325 µM) | relative viability (MK-8033 + Pictilisib; first compound 2 µM) | relative viability (RU-SKI 43 + Alpelisib; first compound 0.1 µM) | relative viability (RU-SKI 43 + Alpelisib; first compound 0.3162 µM) | relative viability (RU-SKI 43 + Alpelisib; first compound 1 µM) | relative viability (RU-SKI 43 + Alpelisib; first compound 3.162 µM) | relative viability (RU-SKI 43 + Alpelisib; first compound 10 µM)
1 | NCI-H520 | 0.392 | 0.396 | 0.267 | 0.195 | 0.766 | 0.424 | 0.503 | 0.639 | 0.542 | 0.28 | 0.221 | 0.295 | 0.283 | 0.323 | 0.968 | 1.01 | 1.09 | 0.918 | 0.793
2 | NCI-H322M | 0.602 | 0.725 | 0.548 | 0.342 | 0.779 | 0.662 | 0.698 | 0.936 | 0.749 | 0.511 | 0.438 | 0.496 | 0.464 | 0.523 | 0.85 | 0.852 | 0.833 | 0.891 | 0.794
3 | 201T | 0.714 | 0.615 | 0.295 | 0.298 | 0.499 | 0.448 | 0.39 | 0.436 | 0.469 | 0.684 | 0.579 | 0.657 | 0.654 | 0.697 | 1.08 | 1.01 | 0.984 | 1.03 | 1.01
4 | RERF-LC-KJ | 0.539 | 0.792 | 0.482 | 0.154 | 0.406 | 0.368 | 0.431 | 0.434 | 0.364 | 0.508 | 0.417 | 0.519 | 0.501 | 0.533 | 0.826 | 0.98 | 0.734 | 0.821 | 0.802
5 | A549 |  | 0.26 | 0.197 | 0.0737 | 0.221 | 0.157 | 0.172 | 0.148 | 0.193 | 0.519 | 0.491 | 0.387 | 0.47 | 0.409 | 0.991 | 0.957 | 0.738 | 0.772 | 0.621
6 | NCI-H1651 | 0.264 | 0.486 | 0.18 | 0.137 | 0.429 | 0.29 | 0.346 | 0.312 | 0.304 | 0.602 | 0.528 | 0.433 | 0.631 | 0.507 | 1.08 | 1.25 | 0.953 | 0.926 | 0.936
7 | NCI-H2405 |  | 0.667 | 0.411 | 0.255 | 0.406 | 0.348 | 0.403 | 0.377 | 0.367 | 0.502 | 0.445 | 0.404 | 0.434 | 0.593 | 0.8 | 0.787 | 0.651 | 0.789 | 0.721
8 | NCI-H727 | 0.617 | 0.751 | 0.527 | 0.602 | 0.7 |  | 0.435 | 0.627 | 0.465 | 0.52 | 0.451 | 0.354 | 0.5 | 0.273 | 0.571 | 0.477 | 0.729 | 0.249 | 0.479
9 | EMC-BAC-2 | 0.933 | 0.719 | 0.432 | 0.277 | 0.554 | 0.509 | 0.531 | 0.556 | 0.494 | 0.59 | 0.412 | 0.478 | 0.502 | 0.483 | 0.769 | 0.752 | 0.762 | 0.733 | 0.893
10 | LXF-289 | 0.351 | 0.218 | 0.162 | 0.165 | 0.559 | 0.504 | 0.499 | 0.547 | 0.538 | 0.789 | 0.64 | 0.721 | 0.734 | 0.823 | 1.02 | 0.96 | 1.1 | 1.13 | 0.963
11 | HCC-827 | 0.337 | 0.326 | 0.174 | 0.221 | 0.407 |  | 0.397 | 0.424 | 0.393 | 1.05 | 0.605 | 0.902 | 1.06 | 1.04 | 0.92 | 1.06 | 1.03 | 1.01 | 0.965
12 | HCC-44 | 0.87 | 0.913 | 0.677 | 0.512 | 0.209 | 0.181 | 0.22 | 0.252 | 0.208 | 0.623 | 0.409 | 0.542 | 0.69 | 0.738 | 0.73 | 0.72 | 0.901 | 0.875 | 0.802
13 | NCI-H2023 | 0.264 | 0.209 | 0.141 | 0.0603 | 0.41 | 0.348 | 0.348 | 0.356 | 0.306 | 0.264 | 0.194 | 0.186 | 0.219 | 0.179 | 0.62 | 0.722 | 0.6 | 0.605 | 0.521
14 | NCI-H1734 |  | 0.27 | 0.18 | 0.197 | 0.435 | 0.338 | 0.366 | 0.361 | 0.37 | 0.48 | 0.37 | 0.466 | 0.469 | 0.45 | 0.595 | 0.698 | 0.755 | 0.672 | 0.671
15 | PC-14 | 0.184 | 0.182 | 0.12 | 0.111 | 0.605 | 0.472 | 0.508 | 0.524 | 0.564 | 0.652 | 0.514 | 0.738 | 0.545 | 0.623 | 0.9 | 0.91 | 1.04 | 0.938 | 0.956
